Reference: ChEMBL document CHEMBL4428076 (J Med Chem, 2016)
Active and inactive are the calls of the source. The rule behind the calls is not given here.

How the values were obtained:
[1] = target: Delta-type opioid receptor (Mus musculus, UniProt P32300); experiment: Antagonist activity at mouse delta opioid receptor-1 expressed in CHO cell membranes assessed as inhibition of DPDPE-induced [35S]GTPgammaS binding incubated for 60 mins by scintillation spectroscopic analysis; type: functional
[2] = target: T1, Kappa-type opioid receptor (Mus musculus, UniProt P33534); experiment: Displacement of [125I]-IBNtxA from mouse kappa opioid receptor-1 expressed in CHO cell membranes incubated for 90 mins
T1 sequence (P33534 whole entry): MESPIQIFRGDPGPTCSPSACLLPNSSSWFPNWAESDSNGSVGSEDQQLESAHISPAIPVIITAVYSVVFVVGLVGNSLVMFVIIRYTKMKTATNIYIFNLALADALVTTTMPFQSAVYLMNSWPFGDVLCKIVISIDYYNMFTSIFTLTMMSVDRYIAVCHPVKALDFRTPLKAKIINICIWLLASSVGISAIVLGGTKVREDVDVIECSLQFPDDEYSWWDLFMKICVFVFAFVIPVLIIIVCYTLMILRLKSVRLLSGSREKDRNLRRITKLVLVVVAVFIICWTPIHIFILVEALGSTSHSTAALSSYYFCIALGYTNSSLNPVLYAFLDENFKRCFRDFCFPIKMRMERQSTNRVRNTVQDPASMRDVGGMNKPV

Mu-type opioid receptor [3] = target: Mu-type opioid receptor (Mus musculus, UniProt P42866); experiment: Agonist activity at mouse mu opioid receptor-1 expressed in CHO cell membranes assessed as [35S]GTPgammaS binding incubated for 60 mins by scintillation spectroscopic analysis; type: functional
Mu-type opioid receptor (Mus musculus, UniProt P42866), sequence (P42866 whole entry): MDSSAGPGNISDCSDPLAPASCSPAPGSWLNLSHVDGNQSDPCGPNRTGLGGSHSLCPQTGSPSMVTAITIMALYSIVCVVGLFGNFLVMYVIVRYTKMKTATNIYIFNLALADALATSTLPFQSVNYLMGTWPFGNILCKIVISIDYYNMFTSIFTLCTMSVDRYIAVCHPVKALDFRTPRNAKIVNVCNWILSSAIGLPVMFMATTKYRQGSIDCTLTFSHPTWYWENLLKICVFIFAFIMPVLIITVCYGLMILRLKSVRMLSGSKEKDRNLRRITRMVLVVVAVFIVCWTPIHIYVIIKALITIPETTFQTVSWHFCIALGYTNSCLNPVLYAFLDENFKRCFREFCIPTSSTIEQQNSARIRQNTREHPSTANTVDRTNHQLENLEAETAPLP

[4] = target: T1, Kappa-type opioid receptor; experiment: Antagonist activity at mouse kappa opioid receptor-1 expressed in CHO cell membranes assessed as inhibition of U50,488H-induced [35S]GTPgammaS binding incubated for 60 mins by scintillation spectroscopic analysis; type: functional
Mus musculus [5] = experiment: Antinociceptive activity in MOR-1 6TM/E11 splice variant knock out sc dosed C57BL/6 mouse assessed as increase in reaction time by radiant heat tail flick assay; type: functional; conditions: C57BL/6, sc
Mu-type opioid receptor [6] = target: Mu-type opioid receptor (Homo sapiens, UniProt P35372); experiment: Inhibition of DAMGO-induced beta-arrestin-2 recruitment at mu opioid receptor-1 (unknown origin) expressed in CHO cells preincubated for 30 mins followed by DAMGO addition measured after 90 mins by beta-galactosidase complementation assay; type: cell-based
Mu-type opioid receptor (Homo sapiens, UniProt P35372), sequence (P35372 whole entry): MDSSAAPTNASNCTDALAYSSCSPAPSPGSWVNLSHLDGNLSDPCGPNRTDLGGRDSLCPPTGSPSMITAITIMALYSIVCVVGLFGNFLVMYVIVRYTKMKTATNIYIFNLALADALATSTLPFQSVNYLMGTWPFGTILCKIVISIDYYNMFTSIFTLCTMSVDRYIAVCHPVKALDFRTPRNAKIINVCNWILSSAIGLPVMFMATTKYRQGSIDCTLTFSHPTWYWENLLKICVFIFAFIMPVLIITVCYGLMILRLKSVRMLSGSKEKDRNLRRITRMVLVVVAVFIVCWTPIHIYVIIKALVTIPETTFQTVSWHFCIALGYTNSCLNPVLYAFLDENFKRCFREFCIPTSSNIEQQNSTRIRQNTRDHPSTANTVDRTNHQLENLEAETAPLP

Mus musculus [7] = experiment: Antinociceptive activity in sc dosed CD-1 mouse assessed as increase in reaction time measured 15 mins post dose by radiant heat tail flick assay; type: functional; conditions: CD-1, sc, 0.25 h
Mus musculus [8] = experiment: Potency index, ratio of morphine ED50 to compound ED50 in sc dosed CD-1 mouse; type: functional
Mus musculus [9] = experiment: Antinociceptive activity in icv dosed CD-1 mouse assessed as increase in reaction time measured 15 mins post dose by radiant heat tail flick assay; type: functional
Mus musculus [10] = experiment: Antinociceptive activity in po dosed CD-1 mouse assessed as increase in reaction time administered through gavage measured 15 mins post dose by radiant heat tail flick assay; type: functional; conditions: CD-1, po, 0.25 h
Mus musculus [11] = experiment: Antinociceptive activity in sc dosed CD-1 mouse assessed as increase in latency latency to respond with hind paw lick or shake/flutter measured 15 mins post dose by hot plate test; type: functional; conditions: CD-1, sc, 0.25 h
Mus musculus [12] = experiment: Potency index, ratio of morphine ED50 to compound ED50 in icv dosed CD-1 mouse; type: functional
Mus musculus [13] = experiment: Antinociceptive activity in 129Sv6 mouse assessed as increase in reaction time at 0.1 to 10 mg/kg, sc measured 15 mins post dose by radiant heat tail flick assay; type: functional, organism-based
Mus musculus [14] = experiment: Antinociceptive activity in C57BL/6 mouse assessed as increase in reaction time at 0.1 to 10 mg/kg, sc measured 15 mins post dose by radiant heat tail flick assay; type: functional, organism-based
Mus musculus [15] = experiment: Antinociceptive activity in CD-1 mouse assessed as increase in reaction time at 1.5 mg/kg, sc measured 15 mins post dose in presence of mu opioid receptor antagonist beta-FNA by radiant heat tail flick assay; type: functional, organism-based
Mus musculus [16] = experiment: Antinociceptive activity in CD-1 mouse assessed as increase in reaction time at 1.5 mg/kg, sc measured 15 mins post dose in presence of opioid antagonist naloxone by radiant heat tail flick assay; type: functional, organism-based
Mus musculus [17] = experiment: Antinociceptive activity in CD-1 mouse assessed as increase in reaction time at 1.5 mg/kg, sc measured 15 mins post dose in presence of delta opioid receptor antagonist NTI by radiant heat tail flick assay; type: functional, organism-based
Mus musculus [18] = experiment: Antinociceptive activity in CD-1 mouse assessed as increase in reaction time at 1.5 mg/kg, sc measured 15 mins post dose in presence of adrenergic alpha2 receptor antagonist yohimbine by radiant heat tail flick assay; type: functional, organism-based
Mus musculus [19] = experiment: Antinociceptive activity in CD-1 mouse assessed as increase in reaction time at 1.5 mg/kg, sc administered on day 6 after MOR1-exon1 antisense oligodeoxynucleotide injection on day 1, 3 and 5 by radiant heat tail flick assay; type: functional, organism-based
Mus musculus [20] = experiment: Antinociceptive activity in CD-1 mouse assessed as increase in reaction time at 1.5 mg/kg, sc administered on day 6 after DOR1-exon3 antisense oligodeoxynucleotide injection on day 1, 3 and 5 by radiant heat tail flick assay; type: functional, organism-based
Mus musculus [21] = experiment: Antinociceptive activity in CD-1 mouse assessed as increase in reaction time at 1.5 mg/kg, sc administered on day 6 after KOR1-exon2 antisense oligodeoxynucleotide injection on day 1, 3 and 5 by radiant heat tail flick assay; type: functional, organism-based
Mus musculus [22] = experiment: Antinociceptive activity in MOR-1 7TM/E1 splice variant knock out sc dosed C57BL/6 mouse assessed as increase in reaction time by radiant heat tail flick assay; type: functional; conditions: C57BL/6, sc
Mus musculus [23] = experiment: Antinociceptive activity in sc dosed C57BL/6 mouse assessed as increase in reaction time by radiant heat tail flick assay; type: functional; conditions: C57BL/6, sc
[24] = Toxicity in CD-1 mouse assessed as time for drug tolerance at 1.5 mg/kg, sc bid at dosing intervals of 12 hrs; type: organism-based; conditions: in vivo
Mus musculus [25] = experiment: Antinociceptive activity in sc dosed CD-1 mouse assessed as increase in reaction time administered twice daily at dosing intervals of 12 hrs for 5 days by radiant heat tail flick assay; type: functional; conditions: CD-1, sc
Mus musculus [26] = experiment: Ratio of ED50 for sc dosed CD-1 mouse administered twice daily at dosing intervals of 12 hrs for 5 days to ED50 for sc dosed CD-1 mouse measured 15 mins post dose; type: functional
Mus musculus [27] = experiment: Antinociceptive activity in sc dosed CD-1 mouse assessed as increase in AUC of reaction time administered twice daily at dosing intervals of 12 hrs for 29 days by radiant heat tail flick assay relative to morphine; type: functional
Mus musculus [28] = experiment: Antinociceptive activity in sc dosed CD-1 mouse assessed as increase in reaction time administered four times per day for 5 days by radiant heat tail flick assay; type: functional; conditions: CD-1, sc, 120 h
[29] = Toxicity in CD-1 mouse assessed as physical dependence by measuring number of jumps at 1.5 mg/kg, sc bid for 5 days followed by opioid antagonist naloxone injection on day 5 measured for 15 mins post last dose; type: organism-based; conditions: in vivo, 0.25 h
[30] = Toxicity in CD-1 mouse assessed as physical dependence by measuring number of jumps at 1.5 mg/kg, sc bid for 22 days followed by opioid antagonist naloxone injection on day 22 measured for 15 mins post last dose; type: organism-based; conditions: in vivo, 0.25 h
[31] = Toxicity in CD-1 mouse assessed as physical dependence by measuring number of jumps at 1.5 mg/kg, sc bid for 29 days followed by opioid antagonist naloxone injection on day 29 measured for 15 mins post last dose; type: organism-based; conditions: in vivo, 0.25 h
[32] = Toxicity in CD-1 mouse assessed as inhibition of gastrointestinal transit by measuring distance traveled by charcoal at 4 mg/kg, sc followed by charcoal meal administration measured after 30 mins; type: organism-based; conditions: in vivo, 0.5 h
[33] = Toxicity in C57BL/6 mouse assessed as decrease in respiratory rate at 1.2 mg/kg, sc measured at 15 to 35 mins post dose; type: organism-based; conditions: in vivo
[34] = Toxicity in C57BL/6 mouse assessed as decrease in respiratory rate at 3 mg/kg, sc measured at 15 to 35 mins post dose relative to control; type: organism-based; set-up: scale not given: the % may be the effect or the level left; conditions: in vivo

Delta-type opioid receptor, sequence (P32300 whole entry): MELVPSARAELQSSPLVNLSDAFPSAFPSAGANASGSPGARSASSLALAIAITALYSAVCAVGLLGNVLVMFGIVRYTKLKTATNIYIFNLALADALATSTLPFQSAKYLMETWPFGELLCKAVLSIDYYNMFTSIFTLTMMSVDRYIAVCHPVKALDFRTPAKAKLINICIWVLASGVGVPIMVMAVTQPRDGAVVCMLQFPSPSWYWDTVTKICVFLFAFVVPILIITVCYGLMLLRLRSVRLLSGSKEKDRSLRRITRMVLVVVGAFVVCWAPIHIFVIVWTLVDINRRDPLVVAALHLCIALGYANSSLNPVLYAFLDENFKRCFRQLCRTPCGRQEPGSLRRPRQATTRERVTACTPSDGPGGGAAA

With CC[C@@H]1CN2CC[C@]3(Nc4cccc(OC)c4C3=O)[C@@H]2C[C@@H]1/C(=C\OC)C(=O)OC the IC50 [1] was 61 nM, the Ki [2] was 24 nM and the EC50 (Mu-type opioid receptor [3]) was 1.7 nM. For the same compound, the IC50 [4] was 31 nM, the ED50 (Mus musculus [5]) was 1.4 mg/kg and the IC50 (Mu-type opioid receptor [6]) was 34 nM. The inhibition (Mu-type opioid receptor [6]) was “Dose-dependent effect”, the ED50 (Mus musculus [7]) was 0.76 mg/kg and the “Ratio ED50” value (Mus musculus [8]) was 3. It also gave an ED50 (Mus musculus [9]) of 0.38 µg, an ED50 (Mus musculus [10]) of 7.5 mg/kg and an ED50 (Mus musculus [11]) of 0.99 mg/kg. The “Ratio ED50” value (Mus musculus [12]) was 1.5, the Activity (Mus musculus [13]) was “Active” and the Activity (Mus musculus [14]) was “Active”. For the same compound, the Activity (Mus musculus [15]) was “inactive”, the Activity (Mus musculus [16]) was “inactive” and the Activity (Mus musculus [17]) was “Active”. For the same compound, the Activity (Mus musculus [18]) was “Active”, the Activity (Mus musculus [19]) was “inactive” and the Activity (Mus musculus [20]) was “Active”. For the same compound, the Activity (Mus musculus [21]) was “Active”, the ED50 (Mus musculus [22]) was > 30 mg/kg and the ED50 (Mus musculus [23]) was 0.83 mg/kg. The Time [24] was 29 days, the ED50 (Mus musculus [25]) was 1.1 mg/kg and the “Ratio ED50” value (Mus musculus [26]) was <2. For the same compound, the “fold change (FC)” value (Mus musculus [27]) was 6, the ED50 (Mus musculus [28]) was 1.6 mg/kg and the Activity [29] was 12. For the same compound, the Activity [30] was 13, the Activity [31] was 14 and the Activity [32] was “Non-Toxic”. For the same compound, the Activity [33] was “Non-Toxic” and the Activity [34] was 15%.
